Patent US20190359653A1, “SELECTIVE PEPTIDE INHIBITORS OF FRIZZLED” (Genentech, Inc., priority 2016, published 2019)

Legend:
Herceptin = assay: spot phage ELISA against Herceptin (off-target); format: binding; conditions: for SIGNAL: NOISE RATIO HERCEPTIN: spot phage ELISA signal against Herceptin over ELISA signal against BSA, Tables 3 and 4; for HERCEPTIN S/W: signal minus noise (BSA); for HERCEPTIN S/W / HERCEPTIN S/N: Table 5; for HERCEPTIN S/N: signal to noise ratio
Experimental: Phage pools of linear peptide libraries (Stanger, K. et al. Allosteric peptides bind a caspase zymogen and mediate caspase tetramerization. Nat Chem Biol 8, 655-660 (2012)) were cycled through rounds of binding selections with hFZD7 CRD-Fc following standard protocols (Tonikian et al. (2007) Nat Protoc 2, 1368-1386). Herceptin (10 μM) was included in sorting solution to block potential Fc binders during all rounds of sorting. After four rounds of binding selection, individual phage clones were analyzed in a high-throughput spot phage ELISA using plate-immobilized FZD7 CRD-Fc as target or off-target for specificity test (hFZD8 CRD-Fc and Herceptin). To measure off-target affinity, duplicate phage particle were assayed against BSA to measure non-specific binding. Clones with a phage-binding signal >0.5 and signal-to-noise ratio >10 were considered to be positive clones and were subjected to DNA sequence analysis. General data handling was done using Microsoft Excel 2010 unless otherwise noted.
In order to investigate the role of FZD7 in intestinal stem cell function, experiments were performed to identify ligands that selectively bind FZD7 CRD. A naïve linear peptide library (4-16 amino acids in length) and a cyclic peptide library were screened via phage display against FZD7 CRD-Fc. Peptides found to bind FZD7 CRD-Fc were then screened via spot phage ELISA against FZD7 CRD-Fc, FZD8 CRD-Fc, and Herceptin to identify candidates that bind FZD7 CRD but not FZD8 CRD or herceptin. The amino acid sequences of candidate FZD7 CRD-binding linear peptides are shown in Table 3 below, and the amino acid sequences of candidate FZD7 CRD-binding cyclic peptides are shown in Table 4.
Briefly, sixty Fz7-21-derived peptides (see Table 5), each containing at least one random alanine and/or valine/and/or aspartic acid and/or serine substitution, were generated and screened via spot phage ELISA (i.e., as described above) against FZD7 CRD-Fc and Herceptin.

[1] = tested on: Wnt3a-mediated β-catenin signaling in HEK293-TB cells; format: cell-based

Row | Substance | SIGNAL: NOISE RATIO HERCEPTIN (Herceptin) | HERCEPTIN S/W (Herceptin) | HERCEPTIN S/N (Herceptin) | other results
1 | 2 (TYFDDICNLILPWANP) [compound 2] | 1.2 | – | – | –
2 | 3 (PQDLLDWCHYMIVSSD) [compound 3] | 1.2 | – | – | –
3 | 4 (ACSYVIDLWNQCLT) [compound 4] | 1.1 | – | – | –
4 | 6 (DTDLHQWCLWFT) [compound 6] | 1.1 | – | – | –
5 | 7 (FWMLLQEGFAFWFP) [compound 7] | 1.3 | – | – | –
6 | 8 (FELLLDLGDLIRLW) [compound 8] | 1.8 | – | – | –
7 | 9 (ACSYVIDLWNLCLR) [compound 9] | 1.3 | – | – | –
8 | 10 (ASELHDWCRMMFPW) [compound 10] | 1.2 | – | – | –
9 | 12 (PPNVHEGCWSMFPW) [compound 12] | 1.1 | – | – | –
10 | 14 (DTDLLQWCLWFT) [compound 14] | 1.2 | – | – | –
11 | 17 (GDFWPGSLLWEILV) [compound 17] | 1.2 | – | – | –
12 | 20 (FLPDQHSHLFLPWGEP) [compound 20] | 1.1 | – | – | –
13 | 22 (VFVPFSELTSLC) [compound 22] | 1.1 | – | – | –
14 | 24 (NAFWRDQCLEWFIICL) [compound 24] | 1.2 | – | – | –
15 | 25 (EHDLLLRAMNSFVLIF) [compound 25] | 1.4 | – | – | –
16 | 26 (FCENPYIICW) [compound 26] | 1.1 | – | – | –
17 | 27 (NPPPECFLSK) [compound 27] | 1.2 | – | – | –
18 | 29 (ERRVCYPWFEVSQP) [compound 29] | 1.3 | – | – | –
19 | 30 (LSSGKKVSSYWFNFWF) [compound 30] | 3.8 | – | – | –
20 | 31 (FWFDFWFG) [compound 31] | 4.1 | – | – | –
21 | 32 (SSDFSGCLSWCDLIFG) [compound 32] | 1.22 | – | – | –

Row | Substance | SIGNAL: NOISE RATIO HERCEPTIN (Herceptin) | HERCEPTIN S/W (Herceptin) | HERCEPTIN S/N (Herceptin) | other results
22 | 34 (HLSDVCCSDWCDLVFW) [compound 34] | 0.99 | – | – | –
23 | 35 (TSDFSWCLSWCDLIFW) [compound 35] | 1.19 | – | – | –
24 | 36 (FDFCTVMPHFIYCPGD) [compound 36] | 1.13 | – | – | –
25 | 37 (FDFCSVMPHFIYCPGD) [compound 37] | 1.10 | – | – | –
26 | 38 (HLSDVFCSDWCDLVFW) [compound 38] | 1.14 | – | – | –
27 | 39 (VAADDLAAWCHVMY) [compound 39] | – | 0.0 | 1.4 | –
28 | 42 (APSDDVAFWCHVMY) [compound 42] | – | 0.0 | 1.6 | –
29 | 43 (APADDVEFWCHVMY) [compound 43] | – | 0.0 | 1.8 | –
30 | 44 (APSDDLEFWCHVMY) [compound 44] | – | 0.0 | 1.3 | –
31 | 45 (APADDLEAWCHVMY) [compound 45] | – | 0.0 | 1.2 | –
32 | 46 (APSDDLEFWCHAMY) [compound 46] | – | 0.0 | 1.3 | –
33 | 47 (VASDDLEAWCHVMY) [compound 47] | – | 0.0 | 1.4 | –
34 | 48 (AAADDLEFWCHVMY) [compound 48] | – | 0.0 | 1.2 | –
35 | 49 (AASDDLAAWCHVMY) [compound 49] | – | 0.0 | 1.8 | –
36 | 50 (AASDDLESWCHVMY) [compound 50] | – | 0.0 | 1.2 | –
37 | 51 (APADDLAFWCHVMY) [compound 51] | – | 0.0 | 1.3 | –
38 | 52 (LPADDLAVWCDVMY) [compound 52] | – | 0.0 | 1.5 | –
39 | 53 (LPSDDLESWCHVMY) [compound 53] | – | 0.0 | 1.2 | –
40 | 54 (AAADDLEVWCHVMY) [compound 54] | – | 0.0 | 1.4 | –
41 | 55 (VAADALEFWCHVMY) [compound 55] | – | 0.0 | 1.3 | –
42 | 56 (APSDDLAAWCHVVY) [compound 56] | – | 0.0 | 1.2 | –

Row | Substance | SIGNAL: NOISE RATIO HERCEPTIN (Herceptin) | HERCEPTIN S/W (Herceptin) | HERCEPTIN S/N (Herceptin) | other results
43 | 57 (AAADDLAAWCDVMY) [compound 57] | – | 0.0 | 1.4 | –
44 | 58 (VASDDLEFWCHVMY) [compound 58] | – | 0.0 | 1.3 | –
45 | 59 (AAADDLEAWCAVMY) [compound 59] | – | 0.0 | 1.2 | –
46 | 60 (LAADDLESWCHVMY) [compound 60] | – | 0.0 | 1.2 | –
47 | 61 (APADDLASWCHVMY) [compound 61] | – | 0.0 | 1.3 | –
48 | 62 (VASDDLASWCHAMY) [compound 62] | – | 0.0 | 1.3 | –
49 | 63 (VPADDLASWCHVMY) [compound 63] | – | 0.0 | 1.2 | –
50 | 64 (APADDLEFWCHVVY) [compound 64] | – | 0.0 | 1.4 | –
51 | 65 (VPSDDLAFWCHVMY) [compound 65] | – | 0.0 | 1.3 | –
52 | 66 (VPADALAVWCDVMY) [compound 66] | – | 0.0 | 1.3 | –
53 | 67 (VPADDLAFWCHVMY) [compound 67] | – | 0.0 | 1.3 | –
54 | 68 (VPSDDLASWCHVMY) [compound 68] | – | 0.0 | 1.4 | –
55 | 69 (VPSADLESWCHVMY) [compound 69] | – | 0.0 | 1.6 | –
56 | 70 (AASDDLEAWCHVMY) [compound 70] | – | 0.0 | 1.4 | –
57 | 71 (APSDDLASWCHVMY) [compound 71] | – | 0.0 | 1.1 | –
58 | 72 (APADDLEFWCHVMY) [compound 72] | – | 0.0 | 1.2 | –
59 | 73 (APSDDLAAWCHVMY) [compound 73] | – | 0.0 | 1.3 | –
60 | 74 (APADDLAFWCHVVY) [compound 74] | – | 0.0 | 1.3 | –
61 | 75 (APSDDLEAWCDVMY) [compound 75] | – | 0.0 | 1.3 | –
62 | 76 (VPSDDLEAWCDVMY) [compound 76] | – | 0.0 | 1.3 | –
63 | 77 (AASDDLAFWCHVMY) [compound 77] | – | 0.0 | 1.1 | –

Row | Substance | SIGNAL: NOISE RATIO HERCEPTIN (Herceptin) | HERCEPTIN S/W (Herceptin) | HERCEPTIN S/N (Herceptin) | other results
64 | 78 (VPADDLASWCDVMY) [compound 78] | – | 0.1 | 1.9 | –
65 | 79 (LPSADLESWCHVMY) [compound 79] | – | 0.0 | 1.4 | –
66 | 80 (AAADDLAFWCHVMY) [compound 80] | – | 0.0 | 1.4 | –
67 | 81 (LASDDLEFWCHVMY) [compound 81] | – | 0.0 | 1.2 | –
68 | 82 (LPAADLAAWCHVMY) [compound 82] | – | 0.0 | 1.2 | –
69 | 83 (VPSADLETWCHVMY) [compound 83] | – | 0.0 | 1.4 | –
70 | 84 (LPADDLAAWCHVMY) [compound 84] | – | 0.0 | 1.4 | –
71 | 85 (PPADDLAFWCDVMY) [compound 85] | – | 0.0 | 1.1 | –
72 | 86 (VASDDLASWCHVVY) [compound 86] | – | 0.0 | 1.2 | –
73 | 87 (AAADDVASWCHVMY) [compound 87] | – | 0.0 | 1.3 | –
74 | 88 (VAADDLAFWCDVMY) [compound 88] | – | 0.0 | 1.2 | –
75 | 89 (APADDLEFWCHAMY) [compound 89] | – | 0.0 | 1.4 | –
76 | 90 (APADDLAFWCDVMY) [compound 90] | – | 0.0 | 0.9 | –
77 | 91 (APSDDLAFWCDVMY) [compound 91] | – | 0.0 | 0.7 | –
78 | 92 (LPADDLAFWCDVMY) [compound 92] | – | 0.0 | 0.7 | –
79 | 93 (AAADDLAFWCDVMY) [compound 93] | – | -0.2 | 0.4 | –
80 | 95 (VPSDDLEFWCAVMY) [compound 95] | – | 0.0 | 1.2 | –
81 | 96 (APADDLESWCHVMY) [compound 96] | – | 0.1 | 2.1 | –
82 | 97 (APSDDLAFWCHVVY) [compound 97] | – | 0.1 | 2.1 | –
83 | 98 (AAADDLAAWCHVVY) [compound 98] | – | 0.1 | 2.2 | –
84 | SDDLEFWCHVMY [dFz7-21-Δ2] | – | – | – | effect of N-terminal truncation on dFz7-21 activity ([1]; lacking the 2 N-terminal residues): did not interfere; IC50 compared with dFz7-21 ([1]; text to Table 17): comparable to that of dFz7-21
